Results taken from PubChem BioAssay (NCI).
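Compound exposure: 48 hours, 5 concentrations, 96-well plates. GI50 is the concentration that inhibits growth by half. Definition used: TGI = concentration required for complete inhibition of growth.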

What was measured:
Test in all cases: NCI tumour cell line growth inhibition, 48 h
[1] = tested on: 786-0 renal
[2] = tested on: ACHN renal
[3] = tested on: COLO 205 colon
[4] = tested on: HCT-116 colon
[5] = tested on: HOP-62 NSCLC
[6] = tested on: LOX IMVI melanoma
[7] = tested on: RXF 393 renal
[8] = tested on: SF-268 CNS
[9] = tested on: SN12C renal
[10] = tested on: U251 CNS
[11] = tested on: MDA-N

Structure (SMILES)	TGI [1] [µM]	TGI [2] [µM]	TGI [3] [µM]	TGI [4] [µM]	TGI [5] [µM]	TGI [6] [µM]	TGI [7] [µM]	TGI [8] [µM]	TGI [9] [µM]	TGI [10] [µM]	TGI [11] [µM]	GI50 [2] [µM]	GI50 [3] [µM]	GI50 [4] [µM]	GI50 [5] [µM]	GI50 [6] [µM]	GI50 [7] [µM]	GI50 [8] [µM]	GI50 [9] [µM]	GI50 [10] [µM]
COC1=CC(=O)CC(C)C12Oc1c(Cl)c(OC)cc(OC)c1C2=O (centres undefined)	> 100	> 100	64	> 93.7	> 100	> 100	43.3	> 100	> 100	> 100	–	–	–	–	–	–	–	–	–	–
CC(=O)Nc1c(S(=O)(=O)c2ccccc2)c(C)c(C)n1Cc1ccccc1	> 100	> 100	> 100	> 100	–	–	> 100	> 100	> 100	> 100	> 100	–	–	–	–	–	–	–	–	–
COc1ccccc1NC(=O)CC(=O)N1N=C(N2c3ccccc3Sc3ccccc32)CC1c1ccccc1 (centres undefined)	> 100	> 100	> 100	> 100	> 100	–	> 100	> 100	> 100	> 100	–	–	–	–	–	–	–	–	–	–
O=C(O)c1cnc(-n2[nH]c3c(c2=O)CCCC3)[nH]c1=O	> 100	> 100	> 100	> 100	–	–	–	> 100	> 100	> 100	> 100	–	–	–	–	–	–	–	–	–
Cc1ccc(C2=C(C#N)C(N)OC3=C2COc2ccccc23)cc1 (centres undefined)	–	> 100	> 100	> 100	34.9	> 100	–	85.9	74.4	51	> 100	–	–	–	–	–	–	–	–	–
S=c1[nH]n2c(CCCCCCCCc3nnc4sc(=S)[nH]n34)nnc2s1	> 100	> 100	> 100	> 100	> 100	–	–	> 100	> 100	> 100	> 100	–	–	–	–	–	–	–	–	–
Cc1cc(S(=O)(=O)Nc2nc3ccccc3nc2-c2ccc(Cl)cc2)c(S)cc1Cl	43.5	34.9	30.2	40.5	46.7	–	46.6	35.3	56.7	34	35.6	–	–	–	–	–	–	–	–	–
COC1=CC2(CC(OC)=C1OC)OC21COc2ccccc2C1=O (centres undefined)	> 100	> 100	> 100	> 100	> 100	> 100	> 100	> 100	> 100	> 100	–	–	–	–	–	–	–	–	–	–
O=C(/C=C(\S/C=C(/c1ccccc1)N1CCn2c(C(=O)c3ccccc3)c(C(=O)c3ccccc3)c(C(=O)c3ccccc3)c21)C(=O)c1ccccc1)c1ccccc1	> 10	> 10	> 10	> 10	> 10	–	–	> 10	> 10	> 10	> 10	–	–	–	–	–	–	–	–	–
Cn1c(CO)ccc1-c1ccc(-c2ccc[se]2)[se]1	> 71.2	> 100	> 84.2	–	55.1	> 100	26.4	> 100	99.5	–	> 61.5	–	–	–	–	–	–	–	–	–
O=C(N/N=C\c1ccc(N(CCCl)CCCl)cc1[N+](=O)[O-])c1cccnc1	–	> 100	> 100	> 100	> 100	> 100	> 100	> 100	> 100	> 100	–	> 100	> 100	> 100	> 100	> 100	> 100	> 100	> 100	> 100
O=C(CSc1nc(-c2ccccc2)c(-c2ccccc2)[nH]1)N/N=C/c1ccc(O)cc1	54.8	55.9	35.1	63.2	46.5	43	61.4	88.5	66.7	49	–	–	–	–	–	–	–	–	–	–
COc1ccc(N=NC(=O)NC(CC(C)C)C(N)=O)cc1 (centres undefined)	> 31.6	> 31.6	24.9	> 31.6	> 100	–	> 31.6	> 100	> 31.6	> 100	> 31.6	–	–	–	–	–	–	–	–	–
COc1c2c(c3ccccc3c1O)C1C=CC2C1 (centres undefined)	–	27.5	30.1	14.6	29.7	17.1	28.9	33.7	28.5	23.9	–	–	–	–	–	–	–	–	–	–
CCCCCCCCCCCC[C@@H](O)[C@H]1CCC([C@H](O)CCCCC(=O)CCCCCCCC2=C[C@H](C)OC2=O)O1 (some centres undefined)	> 50	> 50	> 30	> 50	–	> 50	> 30.2	> 50	> 50	> 50	> 50	–	–	–	–	–	–	–	–	–
CC(C)=CCC/C(C)=C/COc1c2ccoc2cc2oc(=O)ccc12	> 100	83.8	32.4	85.4	> 100	46.4	–	> 100	> 100	55.5	> 100	–	–	–	–	–	–	–	–	–
COC(=O)c1ccc(C)cc1CC1Cc2ccc(C)cc2C1=O (centres undefined)	48.5	80.8	26.1	19	> 100	14.8	28.8	61.7	32.7	16.3	–	–	–	–	–	–	–	–	–	–
O=C(O)c1ccc(C2=Cc3cc(Cl)ccc3OC2)cc1	> 100	> 100	> 100	> 100	> 100	> 100	> 100	> 100	> 100	> 100	–	–	–	–	–	–	–	–	–	–
C=C(C)COC1CCCCO1 (centres undefined)	> 100	> 100	> 100	> 100	> 100	> 100	–	> 100	> 100	> 100	> 100	–	–	–	–	–	–	–	–	–
COC(=O)N[C@H](C(=O)O)C(C)O[Si](C)(C)C(C)(C)C (some centres undefined)	> 100	> 100	> 100	> 100	> 100	> 100	> 100	> 100	> 100	> 100	–	–	–	–	–	–	–	–	–	–
NC(CCOCCP(=O)(O)O)C(=O)O (centres undefined)	–	> 100	> 100	> 100	–	> 100	> 100	> 100	> 100	> 100	> 100	–	–	–	–	–	–	–	–	–

Structure (SMILES)	TGI [1] [µM]	TGI [2] [µM]	TGI [3] [µM]	TGI [4] [µM]	TGI [5] [µM]	TGI [6] [µM]	TGI [7] [µM]	TGI [8] [µM]	TGI [9] [µM]	TGI [10] [µM]	TGI [11] [µM]	GI50 [2] [µM]	GI50 [3] [µM]	GI50 [4] [µM]	GI50 [5] [µM]	GI50 [6] [µM]	GI50 [7] [µM]	GI50 [8] [µM]	GI50 [9] [µM]	GI50 [10] [µM]
COc1cc(OC)cc(-c2n/c(=C\c3c(O)[nH]c4ccc(OC)cc34)cc3c2=Nc2ccccc2-3)c1	–	> 100	–	3.16	34.1	12.8	27.2	41.2	> 100	3.84	–	> 100	–	1.67	15.6	3.1	5.65	10.2	> 100	1.93
NNC(=S)NCCNC(=S)NN	> 100	> 100	> 100	> 100	> 100	> 100	–	> 100	> 100	> 100	> 100	–	–	–	–	–	–	–	–	–
CCN(CC)CCN1C(=O)c2c(c3c4ccccc4[nH]c3c3ccc4ccccc4c23)C1=O	–	2.87	10.8	–	–	–	2.83	–	3.22	3.06	–	1.54	2.56	–	–	–	1.42	–	1.71	1.53
NC1=Nc2cc(Cl)ccc2Sc2nc3ccccc3n21	> 100	> 100	> 100	–	> 100	> 100	> 100	> 100	> 100	> 100	> 100	–	–	–	–	–	–	–	–	–
CCOC(=O)c1nc2ccc(C(F)(F)F)cc2nc1Nc1ccc(Cl)c(Cl)c1	> 100	> 100	> 100	> 100	> 100	> 100	> 100	> 100	> 100	–	> 100	–	–	–	–	–	–	–	–	–
C=C(NC(=O)C(=C)NC(=O)c1csc(C2=NC3c4csc(n4)C4NC(=O)c5csc(n5)C(C(C)(O)C(C)O)NC(=O)C5CSC(=N5)/C(=C/C)NC(=O)C(C(C)O)NC(=O)c5csc(n5)C3(CC2)NC(=O)C(C)NC(=O)C(=C)NC(=O)C(C)NC(=O)C(C(C)CC)NC2C=Cc3c(C(C)O)cc(nc3C2O)C(=O)OC4C)n1)C(N)=O (centres undefined)	3.26	11.7	0.836	1.77	99.4	2.45	0.977	> 100	3.93	3.04	–	–	0.299	–	–	–	0.307	4.74	–	–
C/C=C1\CN(C(=O)OC(C)(C)C)C1C(=O)OC(C)(C)C (centres undefined)	> 100	> 100	> 100	> 100	> 100	> 100	–	> 100	> 100	–	> 100	–	–	–	–	–	–	–	–	–
NC1=NS(=O)(=O)Nc2nc(-c3ccccc3)[nH]c21	> 100	> 100	> 100	> 100	–	> 100	> 100	> 100	> 100	> 100	–	–	–	–	–	–	–	–	–	–
COC(=O)c1c(O)ccc2[nH]c3c(O)c4ccccc4cc3c12	95.6	96.3	37.3	47	46.7	–	> 100	54.7	> 100	> 100	65	–	–	–	–	–	–	–	–	–
CC(=O)Oc1c(-c2ccccc2)sc2ccccc12	28.9	32	30.2	26.1	45.7	26.4	28.1	71.2	–	39.8	–	–	–	–	–	–	–	–	–	–
CC1(C)CCC(C)(C)C1C(=O)NC(O)C(=O)O (centres undefined)	> 100	> 100	> 100	> 100	> 100	> 100	–	> 100	> 100	> 100	> 100	–	–	–	–	–	–	–	–	–
Cc1oc2c(c1C)S(=O)(=O)C(C#N)=C(N(C)C)N2	> 100	> 100	–	> 100	> 100	> 100	–	> 100	> 100	> 100	> 100	–	–	–	–	–	–	–	–	–
CCOC(=O)Nc1ccc2c(c1)c(CCCCCCc1nc3ccccc3c3ccc(NC(=O)OCC)cc13)nc1ccccc12	42.4	> 100	> 100	> 100	64.2	42.5	> 100	74.9	> 100	–	> 100	–	–	–	–	–	–	–	–	–
O=C(c1ccccc1)C1S(=O)(=O)OCCOS1(=O)=O	> 100	–	> 100	> 100	> 100	> 100	–	> 100	> 100	–	–	–	–	–	–	–	–	–	–	–
Cn1cc(-c2ccc3cc(-c4ccc(CC(=O)Nc5cc(C(C)(C)C)on5)cc4)cnc3c2)cn1	–	–	> 100	–	> 100	10.9	–	14.8	10.4	–	–	–	2.95	–	2.54	0.945	–	1.96	1.15	–
COc1ccc([C@@H]2CC(=O)N2)cc1	> 100	> 100	> 100	> 100	> 100	–	> 100	> 100	> 100	> 100	–	–	–	–	–	–	–	–	–	–
CCOC(=O)C(Cc1c[nH]c2cc([N+](=O)[O-])ccc12)NS(=O)(=O)c1ccc2ccccc2c1 (centres undefined)	76.1	57.9	32.1	30.9	31.4	31.6	37.8	43.5	34.4	32.9	–	–	–	–	–	–	–	–	–	–
C=C1C(O)C[C@H](OC(C)=O)[C@]2(C)C1C(OC(C)=O)[C@]1(C(C)(C)O)CC(O)C(C)=C1[C@@H](OC(=O)c1ccccc1)C2OC(C)=O (some centres undefined)	> 10	> 10	> 10	> 10	–	> 10	> 10	> 10	> 10	> 10	> 10	–	–	–	–	–	–	–	–	–
O=C(N=c1ccc2nc(=O)[nH]n(O)c-2c1)C(F)(F)F	> 100	> 100	> 100	> 100	> 100	> 100	–	> 100	> 100	> 100	> 100	–	–	–	–	–	–	–	–	–
COc1cc2c(c(O)c1OC)CC1CCC(=O)N1C2c1cccc2ccccc12 (centres undefined)	94.5	> 100	28.9	45.3	41.8	52.4	–	78.7	34.2	42.9	31.7	–	–	–	–	–	–	–	–	–
